Our source for the IC50 values is patent US20240262842A1, “SMALL MOLECULE INHIBITORS OF KRAS G12C MUTANT” (Merck Sharp & Dohme LLC, priority 2021, published 2024).

Like-named read-outs stand apart in the source and are kept apart here. A value given as a limit tells only on which side of the number the result lay.

Assay [1] has as its target T1, interaction between GMPPNP-bound recombinant K-Ras4B G12C mutant protein and cRAF RAS-binding domain (cRAF-RBD) (Homo sapiens, UniProt P01116, G12C).
T1 construct: His-tag (N)
The assay is described as follows: Inhibitory activity on interaction between KRAS G12C and cRAF (Alpha technology). Put shortly:
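His-tagged K-Ras4B G12C (aa 1-169), GMPPNP-loaded, preincubated with compound 1 h at 25° C in pH 7.5 Tris buffer with MgCl2, TCEP, Tween 20. cRAF-RBD (aa 50-132) and Alpha reagents then added for 1.5 h; Alpha signal normalised to DMSO (0%) and GDP-bound KRAS (100%); IC50 from dose titration.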

Assay [2] relates to MIA PaCa-2 cells. In words: Growth inhibition activity on KRAS-G12C mutant cell line (CellTiter-Glo 3D). It counts as cell-based, human. Particulars: MIA PaCa-2, 3-day culture with compound. Put shortly:
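MIA PaCa-2 cells in RPMI1640 with 10% FBS, U-bottom wells, cultured 1 day before compound (0.2% DMSO final), then 3 days at 37 °C, 5% CO2. Viability by CellTiter-Glo 3D luminescence; growth inhibition versus untreated wells gives IC50 (nM).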
(In general: Cellular ATP, detected with luciferase, serves as a proxy for viable cell number.)

The mark [3] stands for this setting: IC50, GMPPNP-bound KRAS G12C incubated with compound 25° C. 1 hour, Table 2.
[4] abbreviates: Homo sapiens, MIA PaCa-2, 72 h, Table 3.
Setting [5] is: GMPPNP-bound KRAS G12C incubated with compound 25° C. 1 hour, Table 2-1, read-out: IC50.
The mark [6] stands for this setting: Homo sapiens, MIA PaCa-2, 72 h, Table 3-1.
[7] abbreviates: GMPPNP-bound KRAS G12C incubated with compound 25° C. 1 hour, Table 2, read-out: IC50.

T1 sequence (P01116 with tags, fused parts or gaps isoform P01116-2 G12C): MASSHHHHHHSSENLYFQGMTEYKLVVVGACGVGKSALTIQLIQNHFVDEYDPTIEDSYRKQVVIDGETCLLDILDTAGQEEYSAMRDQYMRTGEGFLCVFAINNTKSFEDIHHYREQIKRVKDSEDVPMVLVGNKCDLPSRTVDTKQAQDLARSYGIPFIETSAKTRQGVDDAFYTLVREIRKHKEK

One may read the IC50 as the point on the concentration scale where inhibition reaches its midpoint. Consider `CO[C@H]1CC[C@H](NC/C=C/C(=O)Nc2c(F)cc(C(=O)c3cn4c5c(cccc35)-c3c(C)cc5c(nc(C)n5C)c3N(C)C(=O)C4)cc2F)CC1` [Example 47, (E)-N-(2,6-difluoro-4-(6,8,9,11-tetramethyl-12-oxo-8,11,12,13-tetrahydroimidazo[4″,5″:5′,6′]benzo[1′,2′:5,6][1,4]diazocino[7,8,1-hi]indole-2-carbonyl)phenyl)-4-(((1r,4r)-4-methoxycyclohexyl)amino)but-2-enamide], for which the IC50 is 0.023 µM in assay [1] (setting [3]) and 0.059 µM in assay [2] (setting [4]).

On to `COc1cc2c(nc(C)n2C)c2c1-c1cccn3c(C(=O)c4cc(F)c(NC(=O)/C=C/CNC(C)(C)C)c(F)c4)cc(c13)CCN2C` [Example 79, (E)-4-(tert-butylamino)-N-(2,6-difluoro-4-(7-methoxy-9,10,12-trimeth-yl-9,12,13,14-tetrahydro-imidazo[4″,5″:5′,6′]benzo-[1′,2′:2,3]azocino[4,5,6-hi]indolizine-2-carbonyl)-phenyl)but-2-enamide], for which the IC50 was 0.0328 µM in assay [1] (setting [5]) and 0.0106 µM in assay [2] (setting [6]).

As for `CN1CCc2cc(C(=O)c3cc(F)c(NC(=O)/C=C/CNCCO)c(F)c3)n3cccc(c23)-c2c(C(F)(F)F)cc3c(ncn3C)c21` [Example 96, (E)-N-(4-(9,12-dimethyl-7-(trifluoromethyl)-9,12,13,14-tetrahydro-imidazo[4″,5″:5′,6′]benzo-[1′,2′:2,3]azocino[4,5,6-hi]indolizine-2-carbonyl)-2,6-difluorophenyl)-4-((2-hydroxyethyl)amino)but-2-enamide], the IC50 in assay [1] (setting [5]) is 0.0307 µM; in assay [2] (setting [6]), 0.0145 µM.

As for `COCCn1c(COC)nc2c3c(c(OC)cc21)-c1cccn2c(C(=O)c4cc(F)c(NC(=O)/C=C/CN[C@H]5CCOC5)c(F)c4)cc(c12)CCN3C` (single isomer, unassigned) [Example 247], the figures for the IC50 in assay [1] (setting [5]) and in assay [2] (setting [6]) were 0.0234 µM and 0.0285 µM, respectively.

On to `CO[C@H]1CC[C@H](NC/C=C/C(=O)Nc2c(F)cc(C(=O)c3cc4c5c(cccn35)-c3c(C(F)(F)F)cc5c(nc(C)n5C)c3OC(C)C4)cc2F)CC1` (single isomer, unassigned) [Example 42-1, (E)-N-(2,6-difluoro-4-(9,10,13-trimethyl-7-(trifluoromethyl)-13,14-dihydro-9H-imidazo[4″,5″:5′,6′]benzo[1′,2′:2,3]oxocino[4,5,6-hi]indolizine-2-carbonyl)phenyl)-4-(((1r,4r)-4-methoxycyclohexyl)amino)but-2-enamide], for which the IC50 in assay [1] (setting [7]) was determined as 0.011 µM; in assay [2] (Table 3), 0.006 µM.

Consider `Cn1cnc2c3c(c(C(F)(F)F)cc21)-c1cccn2c(C(=O)c4cc(F)c(NC(=O)/C=C/CN5CCCC5)c(F)c4)cc(c12)CCO3` [Example 149, (E)-N-(2,6-difluoro-4-(9-methyl-7-(trifluorometh-yl)-13,14-dihydro-9H-imidazo[4″,5″:5′,6′]benzo-[1′,2′:2,3]oxocino[4,5,6-hi]indolizine-2-carbonyl)-phenyl)-4-(pyrrolidin-1-yl)but-2-enamide], for which the results for the IC50 in assay [1] (setting [5]) and in assay [2] (setting [6]) were 0.0237 µM and 0.0234 µM, respectively.

Regarding `Cc1c2cc(C(F)(F)F)c3c(c2nn1C)N(C)CCc1cc(C(=O)c2cc(F)c(NC(=O)/C=C/CNC4(C)CC4)c(F)c2)n2cccc-3c12` (single isomer, unassigned) [Example 155, (E)-N-(2,6-difluoro-4-(9,10,12-trimethyl-7-(trifluoromethyl)-10,12,13,14-tetrahydro-indolizino[8′,1′:4,5,6]-azocino[3,2-g]indazole-2-carbonyl)phenyl)-4-((1-methylcyclopropyl)-amino)but-2-enamide], the results for the IC50 in assay [1] (setting [5]) and in assay [2] (setting [6]) were 0.00895 µM and 0.0135 µM, respectively.

`CN1CCc2cc(C(=O)c3cc(F)c(NC(=O)/C=C/CN[C@H]4CCCC[C@@H]4O)c(F)c3)n3cccc(c23)-c2c(C(F)(F)F)cc3c(ncn3C)c21` [Example 101]: the IC50 in assay [1] (setting [5]) is 0.0274 µM; in assay [2] (setting [6]) it was 0.0265 µM.

As for `C[C@H](O)[C@@H]1CCCN1C/C=C/C(=O)Nc1c(F)cc(C(=O)c2cc3c4c(cccn24)-c2c(C(F)(F)F)cc4c(ncn4C)c2N(C)CC3)cc1F` [Example 219, (E)-N-(4-(9,12-dimethyl-7-(trifluoromethyl)-9,12,13,14-tetrahydro-imidazo[4″,5″:5′,6′]benzo-[1′,2′:2,3]azocino[4,5,6-hi]indolizine-2-carbonyl)-2,6-difluorophenyl)-4-((S)-2-((S)-1-hydroxy-ethyl)pyrrolidin-1-yl)but-2-enamide], the results for the IC50 in assay [1] (setting [5]) and in assay [2] (setting [6]) were 0.0385 µM and 0.0126 µM, respectively.

Consider `Cc1c2c3c(cccn3c1C(=O)c1cc(F)c(NC(=O)/C=C/CNC3(C)COC3)c(F)c1)-c1c(C(F)(F)F)cc3c(nc(C)n3C)c1OCC2` [Example 58, (E)-N-(2,6-difluoro-4-(1,9,10-trimethyl-7-(tri-fluoromethyl)-13,14-dihydro-9H-imidazo-[4″,5″:5′,6′]benzo[1′,2′: 2,3]oxocino[4,5,6-hi]-indolizine-2-carbonyl)-phenyl)-4-((3-methyl-oxetan-3-yl)amino)but-2-enamide], for which the results for the IC50 in assay [1] (setting [5]) and in assay [2] (setting [6]) were 0.0779 µM and 0.0702 µM, respectively.

Take `COCc1nc2c3c(c(C(F)(F)F)cc2n1C)-c1cccn2c(C(=O)c4cc(F)c(NC(=O)/C=C/CN[C@H]5CCOC5)c(F)c4)cc(c12)COC3` [Example 209, (S,E)-N-(2,6-difluoro-4-(10-(methoxymethyl)-9-methyl-7-(trifluoromethyl)-9,12-dihydro-14H-imidazo[4″,5″:3′,4′]benzo[1′,2′:6,7]oxocino[5,4,3-hi]indolizine-2-carbonyl)phenyl)-4-((tetrahydrofuran-3-yl)amino)but-2-enamide]: the IC50 in assay [1] (setting [5]) is 0.0469 µM; in assay [2] (setting [6]) it was 0.0187 µM.

With `Cc1nc2c3c(c(C(F)(F)F)cc2n1C)-c1cccn2c(C(=O)c4cc(F)c(NC(=O)C=CCNC5CCOC5)c(F)c4)nc(c12)CCN3C` [Example 148, (S,E)-N-(2,6-difluoro-4-(8,9,11-trimethyl-6-(trifluoromethyl)-8,11,12,13-tetrahydro-1,2a,8,10,11-pentaazacycloocta[1,2,3-cd:5,4-e′]diindene-2-carbonyl)phenyl)-4-((tetrahydrofuran-3-yl)amino)but-2-enamide], the IC50 in assay [1] (setting [5]) is 0.0232 µM; in assay [2] (setting [6]) it was 0.0191 µM.

Regarding `Cc1cc2c(nc(C)n2C)c2c1-c1cccc3c(C(=O)c4cc(F)c(NC(=O)/C=C/CN[C@H]5C[C@H]6CC[C@@H]5O6)c(F)c4)cn(c13)CCN2C` [Example 136], the IC50 was 0.0264 µM in assay [1] (IC50, GMPPNP-bound KRAS G12C incubated with compound 25° C. 1 hour, Table 2-1) and 0.0361 µM in assay [2] (setting [6]).

For `CO[C@H]1CC[C@H](NC/C=C/C(=O)Nc2c(F)cc(C(=O)c3cn4c5c(cccc35)-c3c(C)cc5c(nc(C)n5C)c3OCC3(CC3)C4)cc2F)CC1` (single isomer, unassigned) [Example 21-2, (E)-N-(2,6-difluoro-4-(6′,8′,9′-trimethyl-8′H, 12′H,14′H-spiro[cyclopropane-1,13-imidazo[4″,5″:3′,4′]benzo[1′,2:8,9][1,5]oxazonino[7,6,5-hi]indole]-2′-carbonyl)phenyl)-4-(((1r,4t)-4-methoxycyclohexyl)amino)but-2-enamide], the IC50 is 2.8 µM in assay [1] (setting [3]) and 1.5 µM in assay [2] (Table 3).

For `CO[C@H]1CC[C@H](NC/C=C/C(=O)Nc2c(F)cc(C(=O)c3cc4c5c(cccn35)-c3c(C)cc5c(nc(C)n5C)c3OCC4)cc2F)CC1` [Example 32, (E)-N-(2,6-difluoro-4-(7,9,10-trimethyl-13,14-dihydro-9H-imidazo[4″,5″:5′,6]benzo[1′,2′:2,3]oxocino[4,5,6-hi]indolizine-2-carbonyl)phenyl)-4-(((1,4r)-4-methoxycyclohexyl)amino)but-2-enamide], the values for the IC50 in assay [1] (setting [7]) and in assay [2] (setting [4]) were 0.027 µM and 0.086 µM, respectively.

Turning to `CC(=O)N1CCC(C)(NC/C=C/C(=O)Nc2c(F)cc(C(=O)c3cc4c5c(cccn35)-c3c(C(F)(F)F)cc5c(ncn5C)c3N(C)CC4)cc2F)CC1` [Example 86, (E)-4-((1-acetyl-4-methyl-piperidin-4-yl)amino)-N-(4-(9,12-dimethyl-7-(trifluoromethyl)-9,12,13,14-tetrahydro-imidazo[4″,5″:5′,6′]benzo-[1′,2′:2,3]azocino[4,5,6-hi]indolizine-2-carbonyl)-2,6-difluorophenyl)but-2-enamide], the IC50 in assay [1] (setting [5]) was determined as 0.0223 µM; in assay [2] (setting [6]) it was 0.00611 µM.

As for `CO[C@H]1CC[C@H](NC/C=C/C(=O)Nc2c(F)cc(C(=O)c3cn4c5c(cccc35)-c3c(C)cc5c(nc(C)n5C)c3O[C@H](C)C4)cc2F)CC1` [Example 19, (E)-N-(2,6-difluoro-4-((R)-6,8,9,12-tetramethy 1-12,13-dihydro-8H-imidazo[4″,5″:3′,4′]benzo[1′,2′:7,8][1,4]oxazocino[6,5,4-hi]indole-2-carbonyl)phenyl)-4-(((1,4r)-4-methoxycyclohexyl)amino)but-2-enamide], the IC50 is over 6.7 µM in assay [1] (setting [3]) and 3.3 µM in assay [2] (setting [4]).
